Assay results: patent publication US6589977B1, “Pyrrole derivatives and cell death inhibitors” (Sagami Chemical Research Center, priority 1999, dated 2003)

Legend:
[1] = test system: Porcine ovarian granulosa cells (POGC); experiment: Inhibition of SNP-induced apoptosis of porcine ovarian granulosa cells; assay type: cell-based; details: SNP 0.5 mM; cells observed after 18 hours
Source text: (§1) Porcine ovaries were washed with PBS buffer, and Porcine ovarian granulosa cells (POGC) were collected by aspiration from follicles with a syringe. Cell fraction was recovered as a precipitate by centrifugation of the suspension. The operation of suspending the cell fraction into PBS buffer and subjecting the resulting suspension to centrifugation was repeated three times to wash the cells. The POGC obtained as a precipitate were suspended again into a culture medium (DMEM containing 10% fetal bovine serum) and cell clumps were disrupted by pipetting. The cell suspension was passed through a mesh to remove contaminating tissue fragments, and then pipetted in 24-well plates for cell culture. The cell suspension was cultured for 2 days in a CO2 incubator according to a conventional procedure (37° C., 5% CO2). Then, the medium was refreshed to remove floating cells and the cultivation was continued further 2 to 3 days until the cells reached subconfluency (0.7 to 2×10^5 cell/well). After the attaching cells were washed with serum-free medium, they were cultured in a serum-free DMEM (containing 5 μg/mL of transferrin, and 40 ng/mL of hydrocortisone, 4 mg/mL of bovine serum albumin (BSA), 100 nM androstendione) and it was possible to continue to culture cells with relatively immature differentiation. […] The cell death was also confirmed by MTT assay. Then, various concentrations of the test compounds were added to the present culture system and the cells were observed after 18 hours.

cerebellar granule cells [2] = experiment: Inhibition of low potassium medium-induced death of cerebellar granule cells; assay type: cell-based, rats; details: compound 10 μM; low potassium medium (5 mM KCl); after 18 hours
Description: (§2) According to a known method (A Dissection and Tissue Culture Manual of the Nervous System, p. 211, 1989, Alan R, Liss, Inc.), cerebellar granule cells were isolated from the cerebellum of 7 days old rats and cultured. Namely, after conducting isolation procedures described in the above literature, the resulting cells were resuspended in DMEM containing 10% fetal bovine serum, 25 mM KCl and 2 mM glutamine, and seeded in poly-lysine coated plates. After the cells were cultured in a CO2 incubator for 48 hours according to a conventional method, cytosine-1-β-D(+)-arabinofuranoside (Ara-C) (10 μM) was added thereto, and the cell was continued to culture. The following experiments were conducted with the cells of 7 to 14 days old from the start day of the cultivation, the cells having completed neurite extension sufficiently.
It is known that neuronal cells undergo cell death when they are cultured in a medium of low potassium (Proc. Natl. Acad. Sci. U.S.A., volume 90, p 10989, 1993). […] When the test compound 1 (10 μM), the test compound 10 (10 μM), or the test compound 15 (10 μM)coexisted, 50%, 80%, and 85% of cells were respectively alive on an observation made similarly after 18 hours.

Hela 3S cells = experiment: Anti-cell death effect on Hela 3S cells cultured in Krebs Ringer Buffer; assay type: cell-based, human; details: compound 10 μM
Description: Hela 3S cells (culture medium: DMEM containing 10% fetal bovine serum), a cell line derived from human cervical cancer, were seeded into multi 48 well plates and cultured in a CO2 incubator according to conventional procedures. Confirming the subconfluency of a cell culture, the medium was replaced with Krebs Ringer Buffer (120 mM NaCl, […], 1 mM KH2PO4, […], 20 mM HEPES, pH 7.4, 2.57 g/L glucose, 0.05 g/L Phenol Red) and washed three times with the same buffer and cultivation continued in the same buffer. […] When the test compound 1 (10 μM) or the test compound 15 (10 μM) was added in the present culture system and cultivation continued similarly, the proportion of normal cells increased 59% or 77% respectively, and the proportion of necrosis-like cells decreased (1% or 0%, respectively), indicating the anti-cell death effects.

erythrocytes = experiment: Inhibition of hydrogen peroxide-induced hemolysis of erythrocytes; assay type: cell-based, Human; details: compound 10 μM added prior to hydrogen peroxide (300 μM); after 24 hours
Description: Human blood was collected and precipitated by a centrifugation (1000 rpm, 5 min) and the precipitate containing erythrocytes was washed three times with PBS and resuspended (about 5×10^8 cells/ml) with DMEM containing 10% fetal bovine serum. Cell suspensions were dispensed into a 48-well plate to become subconfluent (about 5×10^5 cells/0.5 ml/well). When hydrogen peroxide (300 μM) was added and cultivation continued for 24 hours, more than 95% of erythrocytes underwent hemolysis and become dark and ghost-like on an observation under a light microscopy.

cerebellar granule cells [3] = experiment: Inhibition of hydrogen peroxide-induced death of cerebellar granule cells; assay type: cell-based, rats; details: compound 10 μM added prior to hydrogen peroxide (10 μM); after 12 hours
Description: as §2

undifferentiated POGC = experiment: Inhibition of hydrogen peroxide-induced cell death of undifferentiated POGC; assay type: cell-based, Porcine; details: compound 0.3 μM added prior to hydrogen peroxide (100 μM); observation after 18 hour
Source text: as §1, with “Then, various concentrations of the test compounds were added to the present culture system and the cells were observed after 18 hours.” left out

In the case of `c1ccc(Cn2cc(-c3c[nH]c4ccccc34)c(-c3c[nH]c4ccccc34)c2)cc1` [Compound 18], the “MEC (Minimum effective concentration for more than 95% of inhibition of cell death)” value [1] is reported as 0.3 µM.

In the case of `Cc1[nH]c2ccccc2c1-c1cn(C)cc1-c1c(C)[nH]c2ccccc12` [Compound 11], the “MEC (Minimum effective concentration for more than 95% of inhibition of cell death)” value [1] is reported as 0.1 µM.

For `Cn1cc(-c2c[nH]c3ccccc23)c(-c2cn(CCCN)c3ccccc23)c1` [Compound 4], the “MEC (Minimum effective concentration for more than 95% of inhibition of cell death)” value [1] was 0.3 µM.

`Cn1cc(-c2c[nH]c3ccccc23)c(-c2cn(C)c3ccccc23)c1` [Compound 8] was tested, and the “MEC (Minimum effective concentration for more than 95% of inhibition of cell death)” value [1] was 0.3 µM.

With `Cn1cc(-c2c[nH]c3ccccc23)c(-c2c[nH]c3ccccc23)c1` [Compound 1] the cells alive (cerebellar granule cells [2]) was 50%, the “proportion of necrosis-like cells” value (Hela 3S cells; after 5 hours (11% without compound)) was 1% and the “proportion of normal cells” value (Hela 3S cells; after 5 hours (42% normal without compound)) was 59%. The “MEC (Minimum effective concentration for more than 95% of inhibition of cell death)” value [1] was 0.3 µM, the inhibition of hemolysis (erythrocytes) was “almost complete inhibition of hemolysis” and the cells alive (cerebellar granule cells [3]) was “more than 80%”.

`Cn1cc(-c2cn(C)c3ccccc23)c(-c2cn(C)c3ccccc23)c1` [Compound 9] was tested, and the “MEC (Minimum effective concentration for more than 95% of inhibition of cell death)” value [1] was 0.3 µM.

`Cn1cc(-c2c[nH]c3ccccc23)c(-c2cn(C(=O)OC(C)(C)C)c3ccccc23)c1` [Compound 2] was tested, and the “MEC (Minimum effective concentration for more than 95% of inhibition of cell death)” value [1] was 0.3 µM.

`COc1ccc2[nH]cc(-c3cn(C)cc3-c3c[nH]c4ccc(OC)cc34)c2c1` [Compound 13] was tested, and the “MEC (Minimum effective concentration for more than 95% of inhibition of cell death)” value [1] was 0.3 µM.

With `Cc1cccc2c(-c3cn(C)cc3-c3c[nH]c4c(C)cccc34)c[nH]c12` [Compound 10] the cells alive (cerebellar granule cells [2]) was 80%, the “MEC (Minimum effective concentration for more than 95% of inhibition of cell death)” value [1] was 0.03 µM and the inhibition of hemolysis (erythrocytes) was “almost complete inhibition of hemolysis”. The cells alive (cerebellar granule cells [3]) was > 95%.

For `Cc1ccc2[nH]cc(-c3cn(C)cc3-c3cn(C(=O)OC(C)(C)C)c4ccc(C)cc34)c2c1` [Compound 22], the “MEC (Minimum effective concentration for more than 95% of inhibition of cell death)” value [1] was 0.3 µM.

`Cc1ccc2[nH]cc(-c3cn(C)cc3-c3cn(C)c4ccc(C)cc34)c2c1` [Compound 24, 3-(1,5-dimethyl-1H-indol-3-yl)-4-(5-methyl-1H-indol-3-yl)-1-methylpyrrole] was tested, and the “MEC (Minimum effective concentration for more than 95% of inhibition of cell death)” value [1] was 0.1 µM.

For `Cn1cc(-c2cn(C(=O)OC(C)(C)C)c3ccccc23)c(-c2cn(C(=O)OC(C)(C)C)c3ccccc23)c1` [Compound 3], the “MEC (Minimum effective concentration for more than 95% of inhibition of cell death)” value [1] was 10 µM.

With `Cn1cc(-c2cn(CCCN)c3ccccc23)c(-c2cn(CCCN)c3ccccc23)c1` [Compound 5] the “MEC (Minimum effective concentration for more than 95% of inhibition of cell death)” value [1] was 0.1 µM.

For `COc1ccc2c(c1)c(-c1cn(C)cc1-c1cn(C)c3ccc(OC)cc13)cn2C` [Compound 14], the “MEC (Minimum effective concentration for more than 95% of inhibition of cell death)” value [1] was 1 µM.

In the case of `Cc1ccc2c(c1)c(-c1cn(C)cc1-c1cn(CCCN)c3ccc(C)cc13)cn2C` [Compound 16], the “inhibition of cell death” value (undifferentiated POGC) is reported as “complete inhibition of cell death”, the “survival of the cells” value (undifferentiated POGC) is reported as “more than 95%” and the “MEC (Minimum effective concentration for more than 95% of inhibition of cell death)” value [1] is reported as 0.1 µM.

For `Cc1ccc2c(c1)c(-c1cn(C)cc1-c1cn(C(=O)OC(C)(C)C)c3ccc(C)cc13)cn2C(=O)OC(C)(C)C` [Compound 23], the “MEC (Minimum effective concentration for more than 95% of inhibition of cell death)” value [1] was 10 µM.

`CN(C)CCCn1cc(-c2cn(C)cc2-c2c[nH]c3ccccc23)c2ccccc21` [Compound 6] was tested, and the “MEC (Minimum effective concentration for more than 95% of inhibition of cell death)” value [1] was 0.3 µM.

For `c1ccc(-n2cc(-c3c[nH]c4ccccc34)c(-c3c[nH]c4ccccc34)c2)cc1` [Compound 17], the “MEC (Minimum effective concentration for more than 95% of inhibition of cell death)” value [1] was 0.3 µM.

`CN(C)CCCn1cc(-c2cn(C)cc2-c2cn(CCCN(C)C)c3ccccc23)c2ccccc21` [Compound 7] was tested, and the “MEC (Minimum effective concentration for more than 95% of inhibition of cell death)” value [1] was 1 µM.

`Cn1cc(-c2c[nH]c3ccc(F)cc23)c(-c2c[nH]c3ccc(F)cc23)c1` [Compound 12] was tested, and the “MEC (Minimum effective concentration for more than 95% of inhibition of cell death)” value [1] was 1 µM.
